Source: patent US20130096067A1, “DROSOPHILA TUMOR STEM CELL MODEL AND USES THEREOF” (priority 2011, published 2013)
Read-outs that look alike come from different tables or passages of the source. Peptide text beside a SMILES is read from it. * marks the point of attachment. Cbz = O=C(OCc1ccccc1)*

System: Raf-1^gof intestinal tumors
Conditions: for Log2 (fold) of luciferase activity relative to DMSO controls / Fold (luciferase activity relative to DMSO controls): ICCB compounds fed in vials to flies with one-day old Raf-1^gof tumors
[1] = screen of 480 ICCB compounds in vials, compounds fed to flies with one-day old Raf-1^gof tumors, assessed three days later, esg-Gal4 luciferase
[2] = screen of 480 ICCB compounds in vials, compounds fed to flies with one-day old Raf-1^gof tumors, assessed three days later, esg-Gal4 luciferase, averaged from multiple wells
[3] = assessed three days later, averaged from multiple wells
For Fold (luciferase activity relative to DMSO controls) in this document: test concentration or dose not given here.
For Fold (luciferase activity, fold difference relative to DMSO controls) in this document: test concentration or dose not given here.
For Log2 (fold) (luciferase activity, log2 of the fold difference relative to DMSO controls) in this document: test concentration or dose not given here.
For Log2 (fold) of luciferase activity relative to DMSO controls in this document: test concentration or dose not given here.

Compound | Log2 (fold) (luciferase activity, log2 of the fold difference relative to DMSO controls) [1] | Fold (luciferase activity, fold difference relative to DMSO controls) [2] | Log2 (fold) of luciferase activity relative to DMSO controls (assessed three days later) | Fold (luciferase activity relative to DMSO controls) [3] [fold] | other results
C[C@@H]1C[C@H]2[C@@H]3CCC4=CC(=O)C=C[C@]4(C)[C@@]3(F)[C@@H](O)C[C@]2(C)[C@@]1(O)C(=O)CO [dexamethasone] | −0.245 | 0.844 | – | – | –
O=C(NCCCCCCNC(=O)ON=C1CCCCC1)ON=C1CCCCC1 [RHC-80267] | −0.279 | 0.824 | – | – | –
CCCCC/C=C\C/C=C\C/C=C\C=C\[C@H](CCCC(=O)O)OO [5(S)-HPETE] | −0.524 | 0.696 | – | – | –
CCCCCCCCCCCCCCCCCCOC[C@H](COP(=O)([O-])OCC[N+](C)(C)C)OC(C)=O [PAF C18] | −0.455 | 0.729 | – | – | –
CC1=NN(c2ccccc2)C(=O)C1 [MCI-186] | – | – | −0.200 | 0.871 | –
CCCC[C@@H](C)/C=C(C)/C=C(\C)C(=O)NC1=C[C@@](O)(/C=C/C=C/C=C/C(=O)NC2=C(O)CCC2=O)[C@@H]2O[C@@H]2C1=O [manumycin A] | −0.233 | 0.851 | – | – | –
CC(C)[C@@H](O)CC[C@@H](C)[C@H]1CC[C@H]2[C@@H]3CC=C4C[C@@H](O)CC[C@]4(C)[C@H]3CC[C@]12C [24(S)-hydroxycholesterol] | −0.244 | 0.844 | – | – | –
Clc1cccc(Cl)c1N=C1NCCN1 [clonidine] | – | – | 0.087 | 1.062 | –
Clc1cccc(Nc2nnc(-c3ccccc3)c3ccccc23)c1 [MY-5445] | – | – | −0.037 | 0.975 | –
CCCCCCCCCCCCC/C=C/[C@@H](O)[C@H](CO)NCCCCCCCC [C8 CERAMINE] | −0.302 | 0.811 | – | – | –
ICRF-193 [reference compound] | −1.459 | 0.364 | – | – | Fold (Table 3 summary of hits, Screen ICCB, luciferase relative to DMSO, fed three consecutive days in vials): 0.364 fold
N#CC(C#N)=Cc1ccc(O)cc1 [Tyrphostin-8] | – | – | – | – | Fold (luciferase activity, fold difference relative to DMSO controls) (in vivo): 0.796; Log2 (fold) (luciferase activity, log2 of the fold difference relative to DMSO controls) (in vivo): −0.329
CC(/C=C/C(=O)NO)=C\[C@@H](C)C(=O)c1ccc(N(C)C)cc1 [trichostatin-A] | – | – | −0.109 | 0.927 | –
CC(C)C[C@H](NC(=O)[C@@H](O)[C@H](N)Cc1ccccc1)C(=O)O [Bestatin] | −0.688 | 0.621 | – | – | –
COC(=O)C1=C(C)NC(C)=C(C(=O)OC)C1c1ccccc1[N+](=O)[O-] [NIFEDIPINE] | −0.417 | 0.749 | – | – | –
CCNC(=O)[C@H]1O[C@@H](n2cnc3c(N)ncnc32)[C@H](O)[C@@H]1O [5′-N-Ethylcarboxamidoadenosine (NECA)] | – | – | −0.024 | 0.983 | –
CCCCC/C=C\C/C=C\C/C=C\C/C=C\CCCCCC(=O)NCCO [ANANDAMIDE (22:4, n-6)] | – | – | 0.007 | 1.005 | –
CCCCCCCCCCCCCC(=O)N[C@@H](C)[C@H](O)c1ccccc1 [MAPP, L-erythro] | – | – | 0.104 | 1.075 | –
COC(=O)C1=C(C)NC(C)=C(C(=O)OCCCN2CCC(c3ccccc3)(c3ccccc3)CC2)[C@H]1c1cccc([N+](=O)[O-])c1 [NIGULDIPINE] | – | – | – | – | Fold (luciferase activity, fold difference relative to DMSO controls) (in vivo): 0.812; Log2 (fold) (luciferase activity, log2 of the fold difference relative to DMSO controls) (in vivo): −0.301
COCCOC(=O)C1=C(C)NC(C)=C(C(=O)OC(C)C)C1c1cccc([N+](=O)[O-])c1 (stereo not shown) [NIMODIPINE] | −0.238 | 0.848 | – | – | –
CN/C(=N\c1ccc(C2=NNC(=O)CC2C)cc1)NC#N (stereo not shown) [siguazodan] | −0.376 | 0.771 | – | – | –
C[C@]12C=CC(=O)C=C1CC[C@@H]1C2=CC[C@]2(C)[C@@H](C(=O)CN3CCN(c4cc(N5CCCC5)nc(N5CCCC5)n4)CC3)CC[C@@H]12.O=C(O)/C=C\C(=O)O [U-74389G] | −0.462 | 0.726 | – | – | –
CCCCCCCCCCCCCCCCOC[C@@H](O)COP(=O)([O-])OCC[N+](C)(C)C [LYSO-PAF C16] | – | – | −0.087 | 0.941 | –

Compound | Log2 (fold) (luciferase activity, log2 of the fold difference relative to DMSO controls) [1] | Fold (luciferase activity, fold difference relative to DMSO controls) [2] | Log2 (fold) of luciferase activity relative to DMSO controls (assessed three days later) | Fold (luciferase activity relative to DMSO controls) [3] [fold] | other results
NC(=Nc1ccccc1)NC(=O)c1nc(Cl)c(N)nc1N | – | – | 0.088 | 1.063 | –
Cc1c(C(=O)c2cccc3ccccc23)c2cccc3c2n1[C@H](CN1CCOCC1)CO3 [WIN 55,212-2] | −0.305 | 0.810 | – | – | –
CCCCCCOC(=O)[C@]1(O)C[C@@H]2O[C@@]1(C)n1c3ccccc3c3c4c(c5c6ccccc6n2c5c31)C(=O)NC4 [KT-5720] | −0.246 | 0.843 | – | – | –
O=C[C@@H]1CCCN1C(=O)[C@@H]1CCCN1C(=O)OCc1ccccc1 [Z-prolyl-prolinal] (Cbz-Pro-Pro-aldehyde) | −0.692 | 0.619 | – | – | –
COc1ccc2c(c1)c(CC(=O)N1CCOCC1)c(C)n2C(=O)c1ccc(Cl)cc1 [BML-190] | – | – | −0.202 | 0.869 | –
CCCCCCCCCCCCC/C=C/[C@@H](O)[C@H](CO)NC(C)=O [C2 CERAMIDE] | −0.493 | 0.711 | – | – | –
OC[C@H]1NC[C@@H](O)[C@@H](O)[C@@H]1O [deoxymannojirimycin(1)] | – | – | −0.125 | 0.917 | –
Clc1ccc2ncnc(NCc3ccc4c(c3)OCO4)c2c1 [MBCQ] | – | – | 0.195 | 1.145 | –
CCN1C[C@]2(COC)[C@H](O)C[C@H](OC)[C@@]34[C@@H]5C[C@@]6(O)[C@H](OC(=O)c7ccccc7)[C@@H]5[C@@](OC(C)=O)([C@@H]([C@H](OC)[C@H]23)[C@@H]14)[C@@H](O)[C@@H]6OC [ACONITINE] | −0.278 | 0.825 | – | – | –
CCCC[C@H]1C(=O)O[C@H](C)[C@H](NC(=O)c2cccc(NC=O)c2OC)C(=O)O[C@@H](C)[C@@H]1OC(=O)CC(C)C [2-methoxyantimycin A3] | −0.873 | 0.546 | – | – | –
COc1c(C)c2c(c(O)c1C/C=C(\C)CCC(=O)O)C(=O)OC2 [Mycophenolic acid] | −0.577 | 0.670 | – | – | –
CCCCNC(=O)NS(=O)(=O)c1ccc(C)cc1 [TOLBUTAMIDE] | −0.494 | 0.710 | – | – | –
CCCCCCCCCCCCCCCCOCC(CO)OC (stereo not shown) [1-HEXADECYL-2-O-METHYL-GLYCEROL] | −0.219 | 0.859 | – | – | –
COc1ccc2c(c1)c(CC(=O)O)c(C)n2C(=O)c1ccc(Cl)cc1 [indomethacin] | −0.549 | 0.683 | – | – | –
O=C1CN(/N=C/c2ccc(-c3ccc([N+](=O)[O-])cc3)o2)C(O)=N1 [DANTROLENE] | – | – | −0.098 | 0.934 | –
C=C1CC[C@H](O)C/C1=C/C=C1\CCC[C@]2(C)[C@@H]([C@H](C)CCCC(C)(C)O)CC[C@@H]12 [25-HYDROXYVITAMIN D3] | – | – | −0.113 | 0.925 | –
C[C@@H](N)[C@H]1CC[C@H](C(=O)Nc2ccncc2)CC1 [Y-27632] | −0.380 | 0.768 | – | – | –
CCOC(=O)C1=C[C@]2(CC)CCCN3CCc4c(n1c1ccccc41)[C@@H]32 [vinpocetine] | – | – | 0.280 | 1.214 | –
CC(C)(Oc1ccc(CCNC(=O)c2ccc(Cl)cc2)cc1)C(=O)O [bezafibrate] | – | – | −0.211 | 0.864 | –
C/C=C1\[C@H]2C=C(C)C[C@]1(N)c1ccc(=O)[nH]c1C2 [Huperzine A [(−)-Huperzine A]] | −0.641 | 0.641 | – | – | –
COC(=O)C1=C(C)NC(C)=C(C(=O)OCCSc2ccccc2)C1C (stereo not shown) [PCA 4248] | – | – | −0.180 | 0.883 | –
COc1ccc(C[C@H]2NC[C@H](O)[C@H]2OC(C)=O)cc1 [anisomycin] | – | – | −0.148 | 0.902 | –
